In patent US11312939B2, “Constructs for chimeric antigen receptors” (Carisma Therapeutics Inc., priority 2020, dated 2022):

Columns and labels:
[1] = test system: HER2 CAR macrophages co-cultured with HER2+ breast cancer cells (CRL2351); test: Cytokine secretion of interferon treated HER2 CAR macrophages in co-culture (MSD); type: cell-based, human; conditions: E:T 3:1, supernatant at 48 hours
Protocol: Human macrophages were electroporated with 150 nM HER2 CAR mRNA comprising m6AGCap1 and PsU modifications. HER2+ breast cancer cells (CRL2351) were co-cultured with CAR macrophages after the macrophages were transfected with the CAR mRNA at an Effector (CAR macrophage) to Target (cancer cell) ratio of 3:1. Supernatant was collected 48 hours after the cancer cells and macrophages were co-cultured and cytokine levels were measured using a Meso Scale Discovery (MSD) instrument.

[2] = test system: Human macrophages electroporated with HER2 CAR mRNA; test: Cytokine treatment of HER2 CAR mRNA macrophages: viability, CAR expression, M1/M2 markers by flow cytometry; type: cell-based; conditions: days 2 and 7
Protocol: Human macrophages were electroporated with HER2 CAR mRNA comprising m6AGCap1 and PsU modifications. Cells were cultured with cytokines that induce an M1 phenotype such as IFN-alpha, IFN-beta, IFN-gamma, IFN-gamma plus lipopolysaccharide (LPS), TNF-alpha, IL-6 or a STING ligand (STING-L) for up to 48 hours and then cytokines were washed off and fresh media was added. CAR expression and M1 marker expression were measured on days 2 and 7 after transfection. Fluorescent labeled HER2+ breast cancer cells (CRL2351) were co-cultured with HER2 CAR macrophages two days after the macrophages were transfected. Cancer cell growth was monitored via its fluorescence on an Incucyte® live imaging microscope every four hours. The Effector (CAR macrophage) to Target (cancer cell) ratio was 5:1.
Five different mRNA modifications were also tested to determine if interferon treatment differentially affected macrophages transfected with mRNA comprising different modifications. Human macrophages were electroporated with HER2 CAR mRNA comprising different mRNA modifications. CAR expression and M1 markers were detected by Flow Cytometry (Attune) on day four after electroporation. Day 4 CAR macrophage cells were then co-cultured with a Nuc-Light labeled, HER2+ breast cancer cell line (CRL2351) at an Effector (CAR macrophage) to Target (cancer cell) ratio of 5:1. Cancer cell growth was monitored via its fluorescence on an Incucyte® live imaging microscope every four hours.
Human macrophages were electroporated with 300 nM CAR mRNA comprising m6AGCap1 and PsU modifications. Cells were cultured with 20 ng/mL IFNs for 24 hours and then the cells were washed to remove cytokines. CAR expression was detected by Flow Cytometry (Attune) on day 2 after transfection. Cells were then co-cultured with a Nuc-Light labeled, HER2+ breast cancer cell line (CRL2351) at the Effector to Target ratio of 3:1. Cancer cell growth was monitored via its fluorescence on an Incucyte® live imaging microscope. CAR expression and M1 markers in macrophages were detected by Flow Cytometry (Attune) on day 7 after transfection.

[3] = test system: Human macrophages transfected with mCherry mRNA; test: mCherry mRNA expression in transfected macrophages (Incucyte); type: cell-based; conditions: cultured one day with different doses
Protocol: Human macrophages were transfected with mCherry mRNA comprising m6AGCap1 and PsU or N1 mPsU modifications and were then cultured for one day with different doses of IFN-γ. mCherry expression was monitored on an Incucyte® live imaging microscope.
In order to determine whether an RNaseL inhibitor could rescue IFN-γ-induced instability of transfected mRNA, human macrophages were treated with 1 μM sunitinib (an RNaseL inhibitor) two hours prior to the transfection of mCherry mRNA comprising m6AGCap1 and PsU modifications. Transfected cells were then cultured for one day with different dosages of IFN-γ. mCherry expression was monitored on an Incucyte® live imaging microscope.
The effect of another RNaseL inhibitor (RLI or ABCE1) was also tested to further validate the concept. Human macrophages were co-transfected with mRNA encoding mCherry comprising m6AGCap 1 and PsU modifications and with mRNA encoding ABCE1.

[4] = test system: CRL-2351 cells expressing nuclear GFP; test: Priming of CAR macrophages with plate-coated agonists, tumor cell killing; type: cell-based; conditions: plate-coated protein, 3 h priming
Protocol: (§1) To generate Her2-Zeta CAR expressing macrophages, primary human macrophages were suspended in EP buffer (MaxCyte) containing 300 nM mRNA (TriLink) at a concentration of 90×10^6 cells/mL. 100 μL of cell mixture was added to an electroporation cassette (OC100×2; MaxCyte) and electroporated using the Experimental T cell 1 setting. Cells were removed from the cassette, plated in 3 mL of TexMACS media (Miltenyi Biotech) containing 20% FBS (Gibco) on UpCell plates (Thermo Scientific), and incubated overnight at 37 C and 5% CO2.
(§2) Recombinant CD40 ligand (Peprotech), 4-1BB ligand (Enzo Life Sciences), and 4-1BB receptor (Peprotech) were resuspended in molecular grade water to a stock concentration of 100 μg/mL. Stock solution was then used to create working solutions in PBS ranging from 2-0.002 μg/mL. 100 uL of working solution was added to wells in a 96-well plate and left at room temperature for 4 h.
Plates were removed from the incubator and left at room temperature for 30 min. Cells were detached from plate, counted using the NC-200 automated cell counter (Chemomtech), and re-suspended in TexMACS media with 10% FBS. […] Cell lysis was detected using Incucyte® analysis (Essen Bioscience). Tumor cell death was calculated by integrated GFP intensity per well relative to time 0.

[5] = test system: Her2-Zeta CAR expressing macrophages; test: Priming of CAR macrophages with plate-coated agonists, M1 and M2 surface markers; type: cell-based, human; conditions: plate-coated protein, 3 days
Protocol: as §1, §2
For detection of cell surface proteins, macrophages were plated onto wells coated with agonist molecules in a final volume of 200 uL TexMACS media+10% FBS+10 ng/mL GM-CSF and incubated for 3 days at 37 C and 5% CO2. Cells were incubated in 300 μL Accutase (Sigma) for 30 min and transferred to 96-well round bottom plate for staining. Cells were incubated in FACS buffer containing 20 μg/mL Her2-His for 20 min at RT, followed by incubation in Human TruStain FcX for 10 min at RT. […]

Question: Which results are given for IFN-α?
Answer: secretion of IL-6, IL-8 and TNFα from macrophages [1]: increased secretion of the cytokines IL-6, IL-8 and TNFα; M1 phenotype based on CD86 expression [2]: induction of an M1 phenotype; M2 markers based on CD163 expression [2]: reduction of M2 markers

Question: For “IFN-γ: interferon cytokine that induces an M1 phenotype”, which “secretion of IL-6, IL-8 and TNFα from macrophages” value [1] is on record?
Answer: increased secretion of the cytokines IL-6, IL-8 and TNFα

Question: And the “M1 phenotype based on CD86 expression” value [2]?
Answer: induction of an M1 phenotype

Question: And the “M2 markers based on CD163 expression” value [2]?
Answer: reduction of M2 markers

Question: And the “mCherry mRNA expression” value [3]?
Answer: reduced mCherry mRNA expression

B1: CD40L: Recombinant CD40 ligand (Peprotech), CD40 agonist (protein, UniProt P29965 113-261, looked up)
CD40 ligand, soluble form: MQKGDQNPQIAAHVISEASSKTTSVLQWAEKGYYTMSNNLVTLENGKQLTVKRQGLYYIYAQVTFCSNREASSQAPFIASLCLKSPGRFERILLRAANTHSSAKPCGQQSIHLGGVFELQPGASVFVNVTDPSQVSHGTGFTSFGLLKL
Question: Which “tumor killing ability of macrophages and CAR macrophages” value [4] does the source give for B1 here?
Answer: significantly improved the tumor killing ability

Question: What about the “M1 phenotype of mRNA CAR macrophages (M1 and M2 markers)” value [5] of the same molecule?
Answer: induced an M1 phenotype
